Reference: ChEMBL document CHEMBL1201861, “Genomics of Drug Sensitity in Cancer screening data, Wellcome Trust Sanger Institute”

Experiments:
Test in all cases: cells
Assay type in all cases: functional, cell-based, Homo sapiens
[1] = tested on: D-423MG; conditions: Homo sapiens, D-423MG
Description: SANGER: Inhibition of human D-423MG cell growth in a cell viability assay.

[2] = tested on: DBTRG-05MG; conditions: Homo sapiens, DBTRG-05MG;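 further: cell viability assay measuring growth inhibition of human DBTRG-05MG cells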
Description: SANGER: Inhibition of human DBTRG-05MG cell growth in a cell viability assay.

[3] = tested on: DOK; conditions: Homo sapiens, DOK;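 further: cell viability assay read-out, values reflect inhibition of cell growth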
Description: SANGER: Inhibition of human DOK cell growth in a cell viability assay.

[4] = tested on: EFM-19; conditions: Homo sapiens, EFM-19;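 further: growth inhibition of human EFM-19 cells, measured in a cell viability assay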
Description: SANGER: Inhibition of human EFM-19 cell growth in a cell viability assay.

[5] = tested on: EFO-21; conditions: Homo sapiens, EFO-21;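 further: growth inhibition of EFO-21 cells measured with a viability assay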
Description: SANGER: Inhibition of human EFO-21 cell growth in a cell viability assay.

[6] = tested on: EW-22; conditions: Homo sapiens, EW-22;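 further: growth inhibition of the EW-22 cell line, measured with a cell viability readout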
Description: SANGER: Inhibition of human EW-22 cell growth in a cell viability assay.

[7] = tested on: HGC-27; conditions: Homo sapiens, HGC-27;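 further: growth inhibition of human HGC-27 cells, read out in a cell viability assay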
Description: SANGER: Inhibition of human HGC-27 cell growth in a cell viability assay.

[8] = tested on: HOS; conditions: Homo sapiens, HOS;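 further: growth inhibition of human HOS cells, read out with a cell viability assay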
Description: SANGER: Inhibition of human HOS cell growth in a cell viability assay.

[9] = tested on: HSC-3; conditions: Homo sapiens, HSC-3
Description: SANGER: Inhibition of human HSC-3 cell growth in a cell viability assay.

[10] = tested on: HT-1080; conditions: Homo sapiens, HT-1080
Description: SANGER: Inhibition of human HT-1080 cell growth in a cell viability assay.

[11] = tested on: HT-29; conditions: Homo sapiens, HT-29;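 further: growth inhibition of human HT-29 cells, read out by a cell viability assay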
Description: SANGER: Inhibition of human HT-29 cell growth in a cell viability assay.

[12] = tested on: IGR-1; conditions: Homo sapiens, IGR-1;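 further: growth inhibition of human IGR-1 cells, read out with a cell viability assay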
Description: SANGER: Inhibition of human IGR-1 cell growth in a cell viability assay.

[13] = tested on: KYSE-180; conditions: Homo sapiens, KYSE-180;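 further: growth inhibition of KYSE-180 cells, read out with a cell viability assay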
Description: SANGER: Inhibition of human KYSE-180 cell growth in a cell viability assay.

[14] = tested on: KYSE-450; conditions: Homo sapiens, KYSE-450;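 further: cell growth inhibition measured by a viability assay in human KYSE-450 cells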
Description: SANGER: Inhibition of human KYSE-450 cell growth in a cell viability assay.

[15] = tested on: LK-2; conditions: Homo sapiens, LK-2;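 further: growth inhibition of LK-2 cells, read out with a viability assay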
Description: SANGER: Inhibition of human LK-2 cell growth in a cell viability assay.

[16] = tested on: MFE-280; conditions: Homo sapiens, MFE-280;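 further: growth inhibition of MFE-280 cells, determined with a cell viability readout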
Description: SANGER: Inhibition of human MFE-280 cell growth in a cell viability assay.

[17] = tested on: MG-63; conditions: Homo sapiens, MG-63;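 further: growth inhibition of human MG-63 cells, read out with a cell viability assay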
Description: SANGER: Inhibition of human MG-63 cell growth in a cell viability assay.

[18] = tested on: MHH-ES-1; conditions: Homo sapiens, MHH-ES-1;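 further: cell growth inhibition measured by a cell viability assay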
Description: SANGER: Inhibition of human MHH-ES-1 cell growth in a cell viability assay.

[19] = tested on: NCI-H1437; conditions: Homo sapiens, NCI-H1437;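 further: growth inhibition of human NCI-H1437 cells, read out by a cell viability assay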
Description: SANGER: Inhibition of human NCI-H1437 cell growth in a cell viability assay.

[20] = tested on: NCI-H1651; conditions: Homo sapiens, NCI-H1651;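 further: Read-out is a cell viability assay, with IC50 expressing inhibition of NCI-H1651 cell growth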
Description: SANGER: Inhibition of human NCI-H1651 cell growth in a cell viability assay.

[21] = tested on: NCI-H1693; conditions: Homo sapiens, NCI-H1693;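 further: growth inhibition of the human cell line, read out with a cell viability assay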
Description: SANGER: Inhibition of human NCI-H1693 cell growth in a cell viability assay.

[22] = tested on: NCI-H2029; conditions: Homo sapiens, NCI-H2029;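 further: Read-out is a viability assay on the cultured cells, and IC50 is the concentration that suppresses cell growth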
Description: SANGER: Inhibition of human NCI-H2029 cell growth in a cell viability assay.

[23] = tested on: NCI-H2228; conditions: Homo sapiens, NCI-H2228;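 further: growth inhibition of human NCI-H2228 cells, read out by a cell viability assay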
Description: SANGER: Inhibition of human NCI-H2228 cell growth in a cell viability assay.

[24] = tested on: NCI-H2347; conditions: Homo sapiens, NCI-H2347;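 further: growth inhibition of the cell line, read out with a cell viability assay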
Description: SANGER: Inhibition of human NCI-H2347 cell growth in a cell viability assay.

[25] = tested on: NCI-H460; conditions: Homo sapiens, NCI-H460;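 further: cell viability assay scoring growth inhibition of human NCI-H460 cells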
Description: SANGER: Inhibition of human NCI-H460 cell growth in a cell viability assay.

[26] = tested on: NCI-H727; conditions: Homo sapiens, NCI-H727;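 further: growth inhibition of human NCI-H727 cells, read out with a cell viability assay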
Description: SANGER: Inhibition of human NCI-H727 cell growth in a cell viability assay.

[27] = tested on: OVCAR-5; conditions: Homo sapiens, OVCAR-5;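 further: growth inhibition of human OVCAR-5 cells, read out with a cell viability assay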
Description: SANGER: Inhibition of human OVCAR-5 cell growth in a cell viability assay.

[28] = tested on: RMG-I; conditions: Homo sapiens, RMG-I;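 further: growth inhibition of human RMG-I cells, read out with a cell viability assay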
Description: SANGER: Inhibition of human RMG-I cell growth in a cell viability assay.

[29] = tested on: SBC-5; conditions: Homo sapiens, SBC-5;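 further: cell viability assay read-out, IC50 is the concentration that inhibits growth of the cells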
Description: SANGER: Inhibition of human SBC-5 cell growth in a cell viability assay.

[30] = tested on: SK-MES-1; conditions: Homo sapiens, SK-MES-1;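 further: growth inhibition of human SK-MES-1 cells, read out with a cell viability assay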
Description: SANGER: Inhibition of human SK-MES-1 cell growth in a cell viability assay.

[31] = tested on: SNU-423; conditions: Homo sapiens, SNU-423
Description: SANGER: Inhibition of human SNU-423 cell growth in a cell viability assay.

[32] = tested on: SW1463; conditions: Homo sapiens, SW1463;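 further: growth inhibition of SW1463 cells, determined with a cell viability assay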
Description: SANGER: Inhibition of human SW1463 cell growth in a cell viability assay.

[33] = tested on: SW1710; conditions: Homo sapiens, SW1710;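 further: growth inhibition of SW1710 cells, determined with a cell viability assay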
Description: SANGER: Inhibition of human SW1710 cell growth in a cell viability assay.

[34] = tested on: SiHa; conditions: Homo sapiens, SiHa;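 further: Viability-based readout of growth inhibition in SiHa cells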
Description: SANGER: Inhibition of human SiHa cell growth in a cell viability assay.

[35] = tested on: 5637; conditions: Homo sapiens
Description: SANGER: Inhibition of human 5637 cell growth in a cell viability assay.

[36] = tested on: 8305C; conditions: Homo sapiens, 8305C
Description: SANGER: Inhibition of human 8305C cell growth in a cell viability assay.

[37] = tested on: A 172; conditions: Homo sapiens, A 172;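 further: growth inhibition of A172 cells, measured with a cell viability readout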
Description: SANGER: Inhibition of human A172 cell growth in a cell viability assay.

[38] = tested on: BT-549; conditions: Homo sapiens, BT-549
Description: SANGER: Inhibition of human BT-549 cell growth in a cell viability assay.

[39] = tested on: BXPC-3; conditions: Homo sapiens, BXPC-3;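 further: growth inhibition of human BxPC-3 cells, read out by a cell viability assay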
Description: SANGER: Inhibition of human BxPC-3 cell growth in a cell viability assay.

[40] = tested on: CAL-72; conditions: Homo sapiens, CAL-72;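 further: cell viability assay measuring inhibition of proliferation in the CAL-72 cell line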
Description: SANGER: Inhibition of human CAL-72 cell growth in a cell viability assay.

[41] = tested on: VMRC-RCZ; conditions: Homo sapiens, VMRC-RCZ;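 further: growth inhibition measured with a cell viability assay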
Description: SANGER: Inhibition of human VMRC-RCZ cell growth in a cell viability assay.

[42] = tested on: YAPC; conditions: Homo sapiens, YAPC;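 further: growth inhibition of YAPC cells, measured with a cell viability assay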
Description: SANGER: Inhibition of human YAPC cell growth in a cell viability assay.

[43] = tested on: YH-13; conditions: Homo sapiens, YH-13;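 further: cell viability readout of growth suppression in the human YH-13 cell line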
Description: SANGER: Inhibition of human YH-13 cell growth in a cell viability assay.

[44] = tested on: MDA-MB-415; conditions: Homo sapiens, MDA-MB-415
[45] = tested on: HCC1599; conditions: Homo sapiens, HCC1599;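 further: growth inhibition of HCC1599 cells, read out in a cell viability assay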
Description: SANGER: Inhibition of human HCC1599 cell growth in a cell viability assay.

[46] = tested on: LB647-SCLC; conditions: Homo sapiens, LB647-SCLC;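 further: cell growth inhibition, read out by a viability assay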
Description: SANGER: Inhibition of human LB647-SCLC cell growth in a cell viability assay.

[47] = tested on: NCI-H1963; conditions: Homo sapiens, NCI-H1963;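 further: cell growth inhibition of the human line, determined with a cell viability assay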
Description: SANGER: Inhibition of human NCI-H1963 cell growth in a cell viability assay.

[48] = tested on: SCC-3; conditions: Homo sapiens, SCC-3;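 further: cell viability assay measuring inhibition of SCC-3 cell growth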
Description: SANGER: Inhibition of human SCC-3 cell growth in a cell viability assay.

[49] = tested on: SIG-M5; conditions: Homo sapiens, SIG-M5;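 further: cell viability assay read-out, measuring how strongly growth of cultured human SIG-M5 cells is inhibited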
Description: SANGER: Inhibition of human SIG-M5 cell growth in a cell viability assay.

Q: `CC(C)c1ccccc1Cc1cc(C(=O)Nc2ccc(S(=O)(=O)c3ccccc3C(C)(C)C)cc2)c(O)c(O)c1O` was tested. Which IC50 [1] did it give?
A: 0.473 µM

Q: What about the IC50 [2] of the same compound?
A: 1.46 µM

Q: What about the IC50 [3] of the same compound?
A: 1.34 µM

Q: What about the IC50 [4] of the same compound?
A: 1.59 µM

Q: And the IC50 [5]?
A: 2.6 µM

Q: And the IC50 [6]?
A: 0.28 µM

Q: What about the IC50 [7] of the same compound?
A: 0.14 µM

Q: What about the IC50 [8] of the same compound?
A: 0.0847 µM

Q: What about the IC50 [9] of the same compound?
A: 0.286 µM

Q: And the IC50 [10]?
A: 0.256 µM

Q: What about the IC50 [11] of the same compound?
A: 1.46 µM

Q: And the IC50 [12]?
A: 0.301 µM

Q: And the IC50 [13]?
A: 0.185 µM

Q: What about the IC50 [14] of the same compound?
A: 0.175 µM

Q: And the IC50 [15]?
A: 1.5 µM

Q: What about the IC50 [16] of the same compound?
A: 4.59 µM

Q: What about the IC50 [17] of the same compound?
A: 0.112 µM

Q: And the IC50 [18]?
A: 0.5 µM

Q: And the IC50 [19]?
A: 0.538 µM

Q: What about the IC50 [20] of the same compound?
A: 1 µM

Q: And the IC50 [21]?
A: 1.25 µM

Q: And the IC50 [22]?
A: 14.4 µM

Q: And the IC50 [23]?
A: 0.662 µM

Q: And the IC50 [24]?
A: 1.22 µM

Q: And the IC50 [25]?
A: 0.306 µM

Q: What about the IC50 [26] of the same compound?
A: 0.941 µM

Q: And the IC50 [27]?
A: 0.576 µM

Q: What about the IC50 [28] of the same compound?
A: 0.207 µM

Q: And the IC50 [29]?
A: 0.147 µM

Q: What about the IC50 [30] of the same compound?
A: 1.04 µM

Q: What about the IC50 [31] of the same compound?
A: 0.325 µM

Q: And the IC50 [32]?
A: 64.8 µM

Q: And the IC50 [33]?
A: 0.388 µM

Q: What about the IC50 [34] of the same compound?
A: 0.261 µM

Q: And the IC50 [35]?
A: 0.552 µM

Q: And the IC50 [36]?
A: 3.91 µM

Q: And the IC50 [37]?
A: 0.794 µM

Q: And the IC50 [38]?
A: 0.68 µM

Q: What about the IC50 [39] of the same compound?
A: 2.48 µM

Q: What about the IC50 [40] of the same compound?
A: 0.968 µM

Q: What about the IC50 [41] of the same compound?
A: 7.75 µM

Q: And the IC50 [42]?
A: 0.801 µM

Q: And the IC50 [43]?
A: 0.0706 µM

Q: Which results are given for `CC(C)CCN1c2nc(Nc3cc(F)c(O)c(F)c3)ncc2N(C)C(=O)C1C` (stereo not drawn)?
A: IC50 [1]: 4.81 µM; IC50 [2]: > 5 µM; IC50 [3]: 3.77 µM; IC50 [4]: > 5 µM; IC50 [5]: > 5 µM; IC50 [6]: > 5 µM; IC50 [7]: > 5 µM; IC50 [8]: 4.46 µM; IC50 [9]: 0.818 µM; IC50 [10]: > 5 µM; IC50 [11]: > 5 µM; IC50 [12]: 4.1 µM; IC50 [13]: > 5 µM; IC50 [14]: > 5 µM; IC50 [15]: > 5 µM; IC50 [44]: > 5 µM; IC50 [16]: > 5 µM; IC50 [17]: > 5 µM; IC50 [18]: 4.83 µM; IC50 [19]: 4.93 µM; IC50 [20]: > 5 µM; IC50 [21]: > 5 µM; IC50 [22]: 1.97 µM; IC50 [23]: > 5 µM; IC50 [24]: > 5 µM; IC50 [25]: > 5 µM; IC50 [26]: > 5 µM; IC50 [27]: > 5 µM; IC50 [28]: > 5 µM; IC50 [29]: > 5 µM; IC50 [30]: 3.73 µM; IC50 [31]: > 5 µM; IC50 [32]: > 5 µM; IC50 [33]: 2.31 µM; IC50 [34]: > 5 µM; IC50 [35]: 4.61 µM; IC50 [36]: 3.89 µM; IC50 [37]: 0.517 µM; IC50 [38]: > 5 µM; IC50 [39]: > 5 µM; IC50 [40]: > 5 µM; IC50 [41]: > 5 µM; IC50 [42]: > 5 µM; IC50 [43]: > 5 µM

Q: `COc1cc2ncn(-c3cc(OCc4ccccc4S(C)(=O)=O)c(C#N)s3)c2cc1OC` [GSK-319347A] was tested. Which IC50 [6] did it give?
A: > 5 µM

Q: What about the IC50 [45] of the same compound?
A: > 5 µM

Q: What about the IC50 [46] of the same compound?
A: > 5 µM

Q: What about the IC50 [47] of the same compound?
A: > 5 µM

Q: What about the IC50 [48] of the same compound?
A: > 5 µM

Q: And the IC50 [49]?
A: > 5 µM
